The values below come from patent publication US20220040129A1, “TREATMENT OF HYPERAMMONEMIA IN PATIENTS WITH RENAL INSUFFICIENCY” (RECORDATI S.p.A., priority 2019, published 2022).

A short description of data set [1]: Exposure previously observed in HVs following oral administration. As to conditions: human, in vivo, read-out: Highest AUC previously observed.
The target of data set [2] is T1, CYP1A2 (Homo sapiens, UniProt P05177).
T1 sequence (P05177 1-516): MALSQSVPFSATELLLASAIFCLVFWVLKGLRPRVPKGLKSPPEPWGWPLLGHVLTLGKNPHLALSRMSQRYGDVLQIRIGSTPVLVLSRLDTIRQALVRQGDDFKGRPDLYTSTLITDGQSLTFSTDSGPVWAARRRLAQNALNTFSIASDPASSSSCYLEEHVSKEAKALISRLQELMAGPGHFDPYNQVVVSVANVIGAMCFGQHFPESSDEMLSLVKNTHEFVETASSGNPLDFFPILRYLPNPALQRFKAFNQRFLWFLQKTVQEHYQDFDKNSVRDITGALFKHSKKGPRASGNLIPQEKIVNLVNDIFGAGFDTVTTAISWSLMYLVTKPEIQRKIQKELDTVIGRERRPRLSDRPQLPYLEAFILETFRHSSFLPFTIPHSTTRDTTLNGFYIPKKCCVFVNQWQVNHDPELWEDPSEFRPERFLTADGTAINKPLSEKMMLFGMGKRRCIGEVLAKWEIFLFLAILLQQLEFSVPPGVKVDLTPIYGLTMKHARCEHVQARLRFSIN
In kind it is in vitro ADME.

Data set [3] concerns plasma NH3. Kind of data set: Rate of reduction of plasma NH3 over 36 hours, population with baseline NH3 over 100/150 micromol/L. In kind it is in vivo, human. The text has this: The two populations analyzed included: 1) Population with baseline plasma NH3 levels over 100 micromol/L in non-neonate or 150 micromol/L in neonate; 2) Propensity Matching Score (PMS) Population. […] These rates of decrease were confirmed to be statistically significant.

Data set [4] addresses CYP2C19 (Homo sapiens, UniProt P33261). Kind of data set: In vitro CYP inhibition. In kind it is in vitro ADME.

Chain of CYP2C19 (P33261 whole entry): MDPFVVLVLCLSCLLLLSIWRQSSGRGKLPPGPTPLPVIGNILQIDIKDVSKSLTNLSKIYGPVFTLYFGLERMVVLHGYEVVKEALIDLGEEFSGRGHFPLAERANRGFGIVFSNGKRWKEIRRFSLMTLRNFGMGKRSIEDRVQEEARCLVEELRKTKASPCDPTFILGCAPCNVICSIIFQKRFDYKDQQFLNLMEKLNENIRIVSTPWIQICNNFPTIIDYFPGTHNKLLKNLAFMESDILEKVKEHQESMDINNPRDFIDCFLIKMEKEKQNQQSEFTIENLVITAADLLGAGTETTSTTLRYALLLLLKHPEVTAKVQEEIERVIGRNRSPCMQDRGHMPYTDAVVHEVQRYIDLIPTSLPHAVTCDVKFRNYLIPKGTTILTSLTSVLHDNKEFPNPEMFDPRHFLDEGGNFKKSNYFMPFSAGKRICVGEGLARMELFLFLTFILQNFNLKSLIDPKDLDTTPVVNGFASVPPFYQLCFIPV

Regarding `NC(=O)N[C@@H](CCC(=O)O)C(=O)O` [carglumic acid, N-carbamoyl-L-glutamic acid], the AUC in data set [1] stood at 30700 ng·h/mL. Further, the “Inhibition of CYP1A2” value in data set [2] is listed as “not an inhibitor”. Besides, the “Median time to achieve 50% reduction of plasma NH3” value in data set [3] (baseline plasma NH3 over 100 micromol/L in non-neonate or 150 micromol/L in neonate) turned out to be 18 hours post dose. In addition, in data set [3] (first 36 hours after treatment initiation, the two populations analyzed), the “Speed of plasma NH3 reduction versus NH3 Scav alone group” value was “statistically significantly faster”. Also, the “Inhibition of CYP2C19” value in data set [4] is listed as “not an inhibitor”.

The term AUC denotes concentration integrated over time.
